In US5294611A, “Angiotensin II receptor blocking 2,3,6 substituted quinazolinones” (American Cyanamid Company, priority 1993, dated 1994):
Where two headings read alike, the source gives them in different places.

Tested on: Angiotensin II (AII) vasopressor response
Assay: AII Challenge: antagonism of angiotensin II vasopressor response in conscious spontaneously hypertensive rats
Type: in vivo, rat (male okamoto-Aoki SHR)
Conditions: for inhibition in vivo at 3 mg/kg / inhibition in vivo at 1 mg/kg: Rattus norvegicus, iv; for inhibition in vivo at 3 mg/kg / Average Change / inhibition in vivo at 1 mg/kg: SHR n=2; for inhibition in vivo at 3 mg/kg: read-out: Inhibition; for Change: single SHR
Excerpt: Conscious Male okamoto-Aoki SHR, 16-20 weeks old, weighing approximately 330 g are purchased from Charles River Labs (Wilmington, Mass.). Conscious rats are restrained in a supine position with elastic tape. The area at the base of the tail is locally anesthetized by subcutaneous infiltration with 2% procaine. […] The cannula is secured, heparinized (1,000 I.U./ml), sealed and the wound is closed. The animals are placed in plastic restraining cages in an upright position. The cannula is attached to a Statham P23Db pressure transducer, and pulsatile blood pressure is recorded to 10-15 minutes with a Gould Brush recorder. […] Angiotensin II (human sequence, Sigma Chem. Co., St. Louis, Mo.) of 0.05 and 0.1 ug/kg i.v. is injected into all rats (predosing response). Then a test compound, vehicle or a known angiotensin II antagonist is administered i.v., i.p. or orally to each set of rats. […] The vasopressor response of angiotensin II is measured for the increase in systolic blood pressure in mmHg.

[1] = 0.5 h, 3 mg/kg I.V., AII 0.05 mcg/kg IV, 30 min post dose
[2] = 0.5 h, 3 mg/kg I.V., AII 0.1 mcg/kg IV, 30 min post dose
[3] = 1 h, 3 mg/kg I.V., AII 0.05 mcg/kg IV, 60 min post dose
[4] = 1 h, 3 mg/kg I.V., AII 0.1 mcg/kg IV, 60 min post dose
[5] = 2 h, 3 mg/kg I.V., AII 0.05 mcg/kg IV, 120 min post dose
[6] = 2 h, 3 mg/kg I.V., AII 0.1 mcg/kg IV, 120 min post dose
[7] = 3 h, 3 mg/kg I.V., AII 0.05 mcg/kg IV, 180 min post dose
[8] = 3 h, 3 mg/kg I.V., AII 0.1 mcg/kg IV, 180 min post dose
[9] = 4 h, 3 mg/kg I.V., AII 0.05 mcg/kg IV, 240 min post dose
[10] = 4 h, 3 mg/kg I.V., AII 0.1 mcg/kg IV, 240 min post dose
[11] = 5 h, 3 mg/kg I.V., AII 0.05 mcg/kg IV, 300 min post dose
[12] = 5 h, 3 mg/kg I.V., AII 0.1 mcg/kg IV, 300 min post dose
[13] = […], 3 mg/kg I.V., AII 0.05 mcg/kg IV, 90 min post dose
[14] = […], 3 mg/kg I.V., AII 0.1 mcg/kg IV, 90 min post dose
[15] = 3 mg/kg I.V., AII 0.05 mcg/kg IV, 30 min post dose
[16] = 3 mg/kg I.V., AII 0.05 mcg/kg IV, 60 min post dose
[17] = 3 mg/kg I.V., AII 0.05 mcg/kg IV, 90 min post dose
[18] = 3 mg/kg I.V., AII 0.05 mcg/kg IV, 120 min post dose
[19] = 3 mg/kg I.V., AII 0.05 mcg/kg IV, 180 min post dose
[20] = 3 mg/kg I.V., AII 0.05 mcg/kg IV, 240 min post dose
[21] = 3 mg/kg I.V., AII 0.1 mcg/kg IV, 30 min post dose
[22] = 3 mg/kg I.V., AII 0.1 mcg/kg IV, 60 min post dose
[23] = 3 mg/kg I.V., AII 0.1 mcg/kg IV, 90 min post dose
[24] = 3 mg/kg I.V., AII 0.1 mcg/kg IV, 120 min post dose
[25] = 3 mg/kg I.V., AII 0.1 mcg/kg IV, 180 min post dose
[26] = 3 mg/kg I.V., AII 0.1 mcg/kg IV, 240 min post dose
[27] = 3 mg/kg I.V., AII 0.1 mcg/kg IV, 300 min post dose
[28] = 3 mg/kg I.V., AII 0.05 mcg/kg IV, 300 min post dose
[29] = 1 mg/kg I.V., AII 0.05 mcg/kg IV, 60 min post dose
[30] = 1 mg/kg I.V., AII 0.05 mcg/kg IV, 300 min post dose

## CCCCc1nc2ccc([C@H]3[C@@H]4CCCCCC[C@@H]4ON3C)cc2c(=O)n1Cc1ccc(-c2ccccc2-c2nnn[nH]2)cc1 (relative stereo) [Example 52]
[1]
  inhibition in vivo at 3 mg/kg: 89%
[2]
  inhibition in vivo at 3 mg/kg: 76%
[3]
  inhibition in vivo at 3 mg/kg: 80%
[4]
  inhibition in vivo at 3 mg/kg: 59%
[5]
  inhibition in vivo at 3 mg/kg: 63%
[6]
  inhibition in vivo at 3 mg/kg: 59%
[7]
  inhibition in vivo at 3 mg/kg: 20%
[8]
  inhibition in vivo at 3 mg/kg: 12%
[9]
  inhibition in vivo at 3 mg/kg: 27%
[10]
  inhibition in vivo at 3 mg/kg: 47%
[11]
  inhibition in vivo at 3 mg/kg: 33%
[12]
  inhibition in vivo at 3 mg/kg: 15%
[13]
  inhibition in vivo at 3 mg/kg: 24%
[14]
  inhibition in vivo at 3 mg/kg: 53%
[15]
  Average Change: 4 mmHg
[16]
  Average Change: 7.5 mmHg
[17]
  Average Change: 28.5 mmHg
[18]
  Average Change: 14 mmHg
[19]
  Average Change: 30 mmHg
  Change: 30 mmHg
[20]
  Average Change: 27.5 mmHg
[21]
  Average Change: 10 mmHg
  Change: 10 mmHg
[22]
  Average Change: 17.5 mmHg
[23]
  Average Change: 20 mmHg
[24]
  Average Change: 17.5 mmHg
[25]
  Average Change: 37.5 mmHg
[26]
  Average Change: 22.5 mmHg
[27]
  Average Change: 36 mmHg
[28]
  Change: 25 mmHg

## CCCCc1nc2ccc(C3CC4CCCCN3O4)cc2c(=O)n1Cc1ccc(-c2ccccc2-c2nnn[nH]2)cc1 (stereo not drawn) [Example 18, cis-2-Butyl-6-(9-oxa-1-azabicyclo[4.2.1]non-8-yl)-3-[[2'-(1H-tetrazol-5-yl)[1,1'-biphenyl]-4-yl-methyl-4(3H)-quinazolinone]
[1]
  inhibition in vivo at 3 mg/kg: 68%
[2]
  inhibition in vivo at 3 mg/kg: 75%
[3]
  inhibition in vivo at 3 mg/kg: 53%
[4]
  inhibition in vivo at 3 mg/kg: 60%
[5]
  inhibition in vivo at 3 mg/kg: 5%
[6]
  inhibition in vivo at 3 mg/kg: 0%
[7]
  inhibition in vivo at 3 mg/kg: 58%
[8]
  inhibition in vivo at 3 mg/kg: 50%
[9]
  inhibition in vivo at 3 mg/kg: 63%
[10]
  inhibition in vivo at 3 mg/kg: 10%
[11]
  inhibition in vivo at 3 mg/kg: 11%
[12]
  inhibition in vivo at 3 mg/kg: 45%
[13]
  inhibition in vivo at 3 mg/kg: 47%
[14]
  inhibition in vivo at 3 mg/kg: 45%
[15]
  Average Change: 15 mmHg
[16]
  Average Change: 22.5 mmHg
[17]
  Average Change: 25 mmHg
[18]
  Average Change: 45 mmHg
[19]
  Average Change: 20 mmHg
[20]
  Average Change: 17.5 mmHg
[28]
  Average Change: 42.5 mmHg
[21]
  Average Change: 12.5 mmHg
[22]
  Average Change: 20 mmHg
[23]
  Average Change: 27.5 mmHg
[24]
  Average Change: 50 mmHg
[25]
  Average Change: 25 mmHg
[26]
  Average Change: 45 mmHg
[27]
  Average Change: 27.5 mmHg

## CCCCc1nc2ccc(C3C4CCCN3OC4)cc2c(=O)n1Cc1ccc(-c2ccccc2-c2nnn[nH]2)cc1 (stereo not shown) [Example 21]
0.5 h, 1 mg/kg I.V., AII 0.05 mcg/kg IV, 30 min post dose
  inhibition in vivo at 1 mg/kg: 53%
0.5 h, 1 mg/kg I.V., AII 0.1 mcg/kg IV, 30 min post dose
  inhibition in vivo at 1 mg/kg: 53%
1 h, 1 mg/kg I.V., AII 0.05 mcg/kg IV, 60 min post dose
  inhibition in vivo at 1 mg/kg: 68%
1 h, 1 mg/kg I.V., AII 0.1 mcg/kg IV, 60 min post dose
  inhibition in vivo at 1 mg/kg: 56%
2 h, 1 mg/kg I.V., AII 0.05 mcg/kg IV, 120 min post dose
  inhibition in vivo at 1 mg/kg: 63%
2 h, 1 mg/kg I.V., AII 0.1 mcg/kg IV, 120 min post dose
  inhibition in vivo at 1 mg/kg: 61%
3 h, 1 mg/kg I.V., AII 0.05 mcg/kg IV, 180 min post dose
  inhibition in vivo at 1 mg/kg: 63%
3 h, 1 mg/kg I.V., AII 0.1 mcg/kg IV, 180 min post dose
  inhibition in vivo at 1 mg/kg: 47%
4 h, 1 mg/kg I.V., AII 0.05 mcg/kg IV, 240 min post dose
  inhibition in vivo at 1 mg/kg: 42%
4 h, 1 mg/kg I.V., AII 0.1 mcg/kg IV, 240 min post dose
  inhibition in vivo at 1 mg/kg: 61%
5 h, 1 mg/kg I.V., AII 0.05 mcg/kg IV, 300 min post dose
  inhibition in vivo at 1 mg/kg: 37%
5 h, 1 mg/kg I.V., AII 0.1 mcg/kg IV, 300 min post dose
  inhibition in vivo at 1 mg/kg: 34%
[…], 1 mg/kg I.V., AII 0.05 mcg/kg IV, 90 min post dose
  inhibition in vivo at 1 mg/kg: 63%
[…], 1 mg/kg I.V., AII 0.1 mcg/kg IV, 90 min post dose
  inhibition in vivo at 1 mg/kg: 52%
1 mg/kg I.V., AII 0.05 mcg/kg IV, 30 min post dose
  Average Change: 22.5 mmHg
[29]
  Average Change: 15 mmHg
  Change: 15 mmHg
1 mg/kg I.V., AII 0.05 mcg/kg IV, 90 min post dose
  Average Change: 17.5 mmHg
1 mg/kg I.V., AII 0.05 mcg/kg IV, 120 min post dose
  Average Change: 17.5 mmHg
1 mg/kg I.V., AII 0.05 mcg/kg IV, 180 min post dose
  Average Change: 17.5 mmHg
1 mg/kg I.V., AII 0.05 mcg/kg IV, 240 min post dose
  Average Change: 27.5 mmHg
[30]
  Average Change: 30 mmHg
  Change: 30 mmHg
1 mg/kg I.V., AII 0.1 mcg/kg IV, 30 min post dose
  Average Change: 27 mmHg
1 mg/kg I.V., AII 0.1 mcg/kg IV, 60 min post dose
  Average Change: 25 mmHg
1 mg/kg I.V., AII 0.1 mcg/kg IV, 90 min post dose
  Average Change: 27.5 mmHg
1 mg/kg I.V., AII 0.1 mcg/kg IV, 120 min post dose
  Average Change: 22.5 mmHg
1 mg/kg I.V., AII 0.1 mcg/kg IV, 180 min post dose
  Average Change: 30 mmHg
1 mg/kg I.V., AII 0.1 mcg/kg IV, 240 min post dose
  Average Change: 22.5 mmHg
1 mg/kg I.V., AII 0.1 mcg/kg IV, 300 min post dose
  Average Change: 37.5 mmHg
